Results: US7884242B2, “N-heterocyclylphthaldiamides as insecticides” (Bayer CropScience AG, priority 2004, dated 2011)
Where a name gives a salt, the structure may show the parent alone.

Key:
[1] = log P determination by HPLC on reverse phase column, pH 2.3; type: physicochemical; conditions: reverse phase column (C 18), pH 2.3, 43° C.; for chromatographic logP: reverse phase HPLC column (C 18)
Description: The determination of the log P values given in the above table and preparation examples is carried out in accordance with EEC directive 79/831 Annex V.A8 by HPLC (High Performance Liquid Chromatography) on a reverse phase column (C 18). Temperature: 43° C. The determination is carried out under acidic conditions at pH 2.3 with 0.1% aqueous phosphoric acid and acetonitrile as eluents; linear gradient of 10% acetonitrile to 95% acetonitrile. Calibration was is carried out with unbranched alkan-2-ones (with 3 to 16 carbon atoms) of known log P values (Determination of log P values by the retention times by linear interpolation between two sequential alkanones).

[2] = system: green peach aphid (Myzus persicae); experiment: Myzus test (spray treatment); type: in vivo; conditions: for pest or weed control at 100 g/ha: Myzus persicae, in Brassica oleracea, 120 h, read-out: Death rate in % after 5d; for activity in Myzus test (spray treatment): statement in words
Description: [table] For the preparation of a suitable active compound formulation 1 part by weight of the active compound is mixed with the above amounts of solvent and emulsifier and the concentrate is diluted to the desired concentration with water containing emulsifier. China cabbage slices (Brassica pekinensis) that are infected with all stages of the green peach aphid (Myzus persicae) are sprayed with an active compound preparation at the desired concentration. After the desired time the activity in % is determined. Here 100% means that all aphids were killed; 0% means that no aphids were killed.

[3] = system: caterpillars of the fall army worm (Spodoptera frugiperda); experiment: Spodoptera frugiperda test (spray treatment); type: in vivo; conditions: for pest or weed control at 4 g/ha: Spodoptera frugiperda, 168 h, spray treatment, maize leaf sections, after 7 d, read-out: Death rate in % after 7d; for activity in Spodoptera frugiperda test (spray treatment): statement in words
Description: [table] For the preparation of a suitable active compound formulation 1 part by weight of the active compound is mixed with the above amounts of solvent and emulsifier and the concentrate is diluted to the desired concentration with water containing emulsifier. Maize leaf sections (Zea mays) are sprayed with an active compound preparation of the desired concentration and after drying infected with caterpillars of the fall army worm (Spodoptera frugiperda). After the desired time the activity in % is determined. Here 100% means that all caterpillars were killed; 0% means that no caterpillars were killed.

[4] = 100 g/ha, spray treatment, China cabbage slices, after 5 d

chromatographic logP [1]	log P (pH 2.3) [1]	Structure (SMILES)	pest or weed control at 100 g/ha [2, 4] [%]	activity in Myzus test (spray treatment) [2]	further results
2.68		Cc1nc(Cn2nc(C(F)(F)F)cc2C(F)(F)F)ncc1C(=O)O [2-(3,5-bistrifluoromethylpyrazol-1-yl-methyl)-4-methylpyrimidin-5-carboxylic acid]			
3.8		CSC[C@H](C)NC(=O)c1c(Cl)cccc1C(=O)Nc1cc(Cn2nc(C(F)(F)F)nc2C(F)(F)F)sc1C [Example 3]			
3.39		CSC[C@H](C)NC(=O)c1c(Cl)cccc1C(=O)Nc1cnc(Cn2nc(C(F)(F)F)cc2C(F)(F)F)nc1C [Example 4, N^1-[2-(3,5-bis-trifluoromethyl-pyrazol-1-ylmethyl)-4-methylpyrimidin-5-yl]-3-chloro-N^2-(S-1-methyl-2-methylsulphanylethyl)phthalamide]			
2.17		Cc1nc(Cn2nc(C(F)(F)F)cc2C(F)(F)F)ncc1NC(=O)c1cccc(Cl)c1C(=O)N[C@@H](C)C[S+](C)[O-] (some centres unmarked) [Example 5, N^1-[2-(3,5-bistrifluoromethylpyrazol-1-ylmethyl)-4-methylpyrimidin-5-yl]-3-chloro-N^2-(S-2-methanesulphinyl-1-methylethyl)phthalamide]	80	good activity	
	log P (pH 2.3): 2.32	Cc1nc(Cn2nc(C(F)(F)F)cc2C(F)(F)F)ccc1NC(=O)c1cccc(Br)c1C(=O)NC(C)C[S+](C)[O-] (centres unmarked) [Example 11]			
	log P (pH 2.3): 3.52	CSCC(C)NC(=O)c1c(I)cccc1C(=O)Nc1ccc(Cn2nc(C(F)(F)F)nc2C(F)(F)F)nc1C (centres unmarked) [Example 12]			
3.44		CSC[C@H](C)NC(=O)c1c(Br)cccc1C(=O)Nc1cnc(Cn2nc(C(F)(F)F)cc2C(F)(F)F)nc1C [Example 18]	100	good activity	pest or weed control at 4 g/ha [3]: 100%; activity in Spodoptera frugiperda test (spray treatment) [3]: good activity
3.55		CSC[C@H](C)NC(=O)c1c(I)cccc1C(=O)Nc1cnc(Cn2nc(C(F)(F)F)cc2C(F)(F)F)nc1C [Example 19]	100	good activity	pest or weed control at 4 g/ha [3]: 83%; activity in Spodoptera frugiperda test (spray treatment) [3]: good activity
3.24		CSC[C@H](C)NC(=O)c1c(Cl)cccc1C(=O)Nc1cnc(Cn2nc(C(F)(F)F)nc2C(F)(F)F)nc1C [Example 20]	100	good activity	
3.29		CSC[C@H](C)NC(=O)c1c(Br)cccc1C(=O)Nc1cnc(Cn2nc(C(F)(F)F)nc2C(F)(F)F)nc1C [Example 21]	100	good activity	
3.35		CSC[C@H](C)NC(=O)c1c(I)cccc1C(=O)Nc1cnc(Cn2nc(C(F)(F)F)nc2C(F)(F)F)nc1C [Example 22]	90	good activity	
2.2		Cc1nc(Cn2nc(C(F)(F)F)cc2C(F)(F)F)ncc1NC(=O)c1cccc(Br)c1C(=O)N[C@@H](C)C[S+](C)[O-] (some centres unmarked) [Example 23]	80	good activity	
	log P (pH 2.3): 3.29	Cc1nc(Cn2nc(C(F)(F)C(F)(F)F)cc2C(F)(F)C(F)(F)F)ncc1NC(=O)c1cccc(Cl)c1C(=O)NC(C)CS(C)(=O)=O (centres unmarked) [Example 25]			
	log P (pH 2.3): 2.91	Cc1nc(Cn2nc(C(F)(F)C(F)(F)F)cc2C(F)(F)C(F)(F)F)ncc1NC(=O)c1cccc(Cl)c1C(=O)NC(C)C[S+](C)[O-] (centres unmarked) [Example 26]			
	log P (pH 2.3): 4.11	CSCC(C)NC(=O)c1c(Cl)cccc1C(=O)Nc1cnc(Cn2nc(C(F)(F)C(F)(F)F)cc2C(F)(F)C(F)(F)F)nc1C (centres unmarked) [Example 27]			
2.42		Cc1nc(Cn2nc(C(F)(F)C(F)(F)F)nc2C(F)(F)F)ncc1NC(=O)c1cccc(Br)c1C(=O)N[C@@H](C)C[S+](C)[O-] (some centres unmarked) [Example 28]	100	good activity	
2.41		Cc1nc(Cn2nc(C(F)(F)C(F)(F)F)nc2C(F)(F)F)ncc1NC(=O)c1cccc(Cl)c1C(=O)N[C@@H](C)C[S+](C)[O-] (some centres unmarked) [Example 29]	100	good activity	pest or weed control at 4 g/ha [3]: 100%; activity in Spodoptera frugiperda test (spray treatment) [3]: good activity
	log P (pH 2.3): 1.67	Cc1nc(Cn2nc(C(F)F)cc2C(F)F)ncc1NC(=O)c1cccc(Cl)c1C(=O)NC(C)C[S+](C)[O-] (centres unmarked) [Example 32]			
	log P (pH 2.3): 1.89	Cc1nc(Cn2nc(C(F)F)cc2C(F)F)ncc1NC(=O)c1cccc(Cl)c1C(=O)NC(C)CS(C)(=O)=O (centres unmarked) [Example 33]			

chromatographic logP [1]	log P (pH 2.3) [1]	Structure (SMILES)	pest or weed control at 100 g/ha [2, 4] [%]	activity in Myzus test (spray treatment) [2]	further results
	log P (pH 2.3): 2.65	CSCC(C)NC(=O)c1c(Cl)cccc1C(=O)Nc1cnc(Cn2nc(C(F)F)cc2C(F)F)nc1C (centres unmarked) [Example 35]			
2.07		Cc1nc(Cn2nc(C(F)(F)F)nc2C(F)(F)F)ncc1NC(=O)c1cccc(Br)c1C(=O)N[C@@H](C)C[S+](C)[O-] (some centres unmarked) [Example 36]	100	good activity	
2.49		Cc1nc(Cn2nc(C(F)(F)F)nc2C(F)(F)F)ncc1NC(=O)c1cccc(Br)c1C(=O)N[C@@H](C)CS(C)(=O)=O [Example 37]	100	good activity	
		Cc1nc(Cn2nc(C(F)(F)F)cc2C(F)(F)F)ncc1NC(=O)c1cccc(Cl)c1C(=O)N[C@@H](C)CS(C)(=O)=O [Example 38]	100		
		Cc1nc(Cn2nc(C(F)(F)F)cc2C(F)(F)F)ncc1NC(=O)c1cccc(Cl)c1C(=O)N[C@@H](C)C[S+](C)[O-] (some centres unmarked) [Example 39]		good activity	Death rate in % after 5d [2, 4]: 100%
2.13		Cc1nc(Cn2nc(C(F)(F)F)nc2C(F)(F)F)ncc1NC(=O)c1cccc(I)c1C(=O)N[C@@H](C)C[S+](C)[O-] (some centres unmarked) [Example 40]	100	good activity	
	log P (pH 2.3): 3.95	CSCC(C)NC(=O)c1c(Cl)cccc1C(=O)Nc1ccc(Cn2nc(C(F)(F)C(F)(F)F)cc2C(F)(F)F)nc1C (centres unmarked) [Example 42]			
	log P (pH 2.3): 3.80	CSCC(C)NC(=O)c1c(Cl)cccc1C(=O)Nc1ccc(Cn2nc(C(F)(F)C(F)(F)F)nc2C(F)(F)F)nc1C (centres unmarked) [Example 43]			
	log P (pH 2.3): 2.76	Cc1nc(Cn2nc(C(F)(F)F)cc2C(F)(F)F)ccc1NC(=O)c1cccc(Br)c1C(=O)NC(C)CS(C)(=O)=O (centres unmarked) [Example 45]			
	log P (pH 2.3): 4.15	CSCC(C)NC(=O)c1c(Cl)cccc1C(=O)Nc1ccc(Cn2nc(C(F)(F)C(F)(F)F)c(C(F)(F)F)c2F)nc1C (centres unmarked) [Example 46]			
	log P (pH 2.3): 4.23	CSCC(C)NC(=O)c1c(Cl)cccc1C(=O)Nc1ccc(Cn2nc(C(F)(F)C(F)(F)F)nc2C(F)(F)C(F)(F)F)nc1C (centres unmarked) [Example 47]			
	log P (pH 2.3): 4.37	CSCC(C)NC(=O)c1c(Cl)cccc1C(=O)Nc1ccc(Cn2nc(C(F)(F)C(F)(F)F)cc2C(F)(F)C(F)(F)F)nc1C (centres unmarked) [Example 49]			
3.96		CCOC(=O)c1cnc(Cn2nc(C(F)(F)F)cc2C(F)(F)F)nc1C [Example V-1, ethyl 2-(3,5-bistrifluoromethyl-pyrazol-1-yl-methyl)-4-methylpyrimidine-5-carboxylate]			
3.87		CSC[C@H](C)/N=C1\OC(=O)c2cccc(I)c21 [II-1, 4-iodo-3-[(1S)-1-methyl-2-methylsulphanylethylimino]-3H-isobenzofuran-1-one]			
2.43		Cc1nc(Cn2nc(C(F)(F)F)cc2C(F)(F)F)ncc1N [IIIa-2, 2-(3,5-bis-trifluoromethylpyrazol-1-yl-methyl)-4-methylpyrimidin-5-yl-amine]			
0.74		N=C(N)Cn1nc(C(F)(F)F)cc1C(F)(F)F [IX-1, 2-(3,5-bistrifluoromethyl-pyrazol-1-yl)acetamidine hydrochloride]			
3.84		Cc1nc(Cn2nc(C(F)(F)F)cc2C(F)(F)F)ncc1NC(=O)OC(C)(C)C [VI-1, tert-butyl [2-(3,5-bistrifluoromethylpyrazol-1-ylmethyl)-4-methylpyrimidin-5-yl]carbamidate]			
2.93		COC(=O)Cn1nc(C(F)(F)F)cc1C(F)(F)F [methyl (3,5-bistrifluoromethyl-pyrazol-1-yl)acetate]			
